These results are taken from patent US20250186391A1, “ORAL COMPLEMENT FACTOR D INHIBITORS” (BioCryst Pharmaceuticals, Inc., priority 2019, published 2025).

Broadly, the IC50 is the point on the concentration scale where inhibition reaches its midpoint.

SMILES strings stand for the structures.

Sequence of Factor D (P00746 26-253): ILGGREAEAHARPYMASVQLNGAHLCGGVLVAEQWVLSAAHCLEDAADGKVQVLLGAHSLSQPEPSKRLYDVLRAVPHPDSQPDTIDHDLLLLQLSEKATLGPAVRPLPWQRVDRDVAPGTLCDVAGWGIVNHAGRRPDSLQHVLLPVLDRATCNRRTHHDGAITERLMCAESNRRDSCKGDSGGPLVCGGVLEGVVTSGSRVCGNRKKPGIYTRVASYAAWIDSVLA

The target in this assay is Factor D (Homo sapiens (Human), UniProt P00746). Description: Factor D esterolytic assay. Type of assay: biochemical. The note with it: Z-Lys-SBzl substrate, 100 mM HEPES, 500 mM NaCl, pH 7.5, 10% DMSO; tested a minimum of three times; read-out: Measured Ki (IC50) Value for Compounds: IC50. The essentials:
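Chromogenic thioesterase read-out: Z-Lys-SBzl (1.29 mM) hydrolysis by human Factor D, thiol detected with DTNB at 405 nm (690 nm background subtracted) for 600 s. Run in 100 mM HEPES, 500 mM NaCl, pH 7.5, 10% DMSO, substrate added immediately or after room-temperature preincubation. IC50 from percent inhibition versus enzyme alone, n≥3.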
Take `COc1ccc(CC(=O)O)c(OCc2coc3c2cc(-c2cccc(CN)c2)c2occc23)c1` [Compound 231c, 2-(2-((5-(3-(aminomethyl)phenyl)benzo[1,2-b:3,4-b′]difuran-3-yl)methoxy)-4-methoxyphenyl)acetic acid]: the IC50 was under 1 µM. Under `CC(C)n1nc(COc2ccccc2CC(=O)O)c2cc(-c3ccnc(CN)c3)ccc21` [Compound 266b, 2-(2-((5-(2-(aminomethyl)pyridin-4-yl)-1-isopropyl-1H-indazol-3-yl)methoxy)phenyl)acetic acid] stands under 1 µM. Regarding `C[C@@H](N)c1cccc(-c2ccc3occ(COc4ccccc4CC(=O)O)c3c2)c1` [Compound 52c, (R)-2-(2-((5-(3-(1-aminoethyl)phenyl)benzofuran-3-yl)methoxy)phenyl)acetic acid], the IC50 is under 1 µM. On to `CC(Oc1ccccc1CC(=O)O)c1coc2ccc(-c3cccc(CN)c3)cc12` (stereo not drawn) [Compound 119d, 2-(2-(1-(5-(3-(aminomethyl)phenyl)benzofuran-3-yl)ethoxy)phenyl)acetic acid], for which the IC50 was under 1 µM. As to `COc1ccc(CC(=O)O)c(OCc2coc3c(NCC4CCCC4)cc(-c4cccc(CN)c4)cc23)c1` [Compound 277c, 2-(2-((5-(3-(aminomethyl)phenyl)-7-((cyclopentylmethyl)amino)benzofuran-3-yl)methoxy)-4-methoxyphenyl)acetic acid], the IC50 was under 1 µM. Take `COc1ccc(CC(=O)O)c(OCc2c(C(O)C(F)(F)F)oc3ccc(-c4cccc(CN)c4)cc23)c1` (stereo not drawn) [Compound 216c, 2-(2-((5-(3-(aminomethyl)phenyl)-2-(2,2,2-trifluoro-1-hydroxyethyl)benzofuran-3-yl)methoxy)-4-methoxyphenyl)acetic acid]: the IC50 is under 1 µM. Under `CN1CCN(Cc2ccc(-c3cc(-c4cccc(CN)c4)cc4c(COc5ccccc5CC(=O)O)coc34)cc2)CC1` [Compound 116d, 2-(2-((5-(3-(aminomethyl)phenyl)-7-(4-((4-methylpiperazin-1-yl)methyl)phenyl)benzofuran-3-yl)methoxy)phenyl)acetic acid] stands under 1 µM; under `NCc1cc(F)cc(-c2ccc3occ(COc4ccccc4CC(=O)O)c3c2)c1` [Compound 40c, 2-(2-((5-(3-(aminomethyl)-5-fluorophenyl)benzofuran-3-yl)methoxy)phenyl)acetic acid], under 1 µM; under `NCc1cccc(-c2ccc3c(c2)c(COc2ccccc2CC(=O)O)nn3C2CCCCC2)c1` [Compound 259c, 2-(2-((5-(3-(aminomethyl)phenyl)-1-cyclohexyl-1H-indazol-3-yl)methoxy)phenyl)acetic acid], under 1 µM. Take `NCc1cccc(-c2cc(CCC3CC3)c3occ(COc4ccccc4CC(=O)O)c3c2)c1` [Compound 170b, 2-(2-((5-(3-(aminomethyl)phenyl)-7-(2-cyclopropylethyl)benzofuran-3-yl)methoxy)phenyl)acetic acid]: the IC50 was under 1 µM.

For `CCCc1oc2ccc(-c3cccc(CN)c3)cc2c1COc1cc(OC)ccc1CC(=O)O` [Compound 284e, 2-(2-((5-(3-(aminomethyl)phenyl)-2-propylbenzofuran-3-yl)methoxy)-4-methoxyphenyl)acetic acid], the IC50 is under 1 µM. Turning to `COc1ccc(CC(=O)O)c(OCc2nn(C)c3ccc(-c4ccnc(CN)c4F)cc23)c1` [Compound 316c, 2-(2-((5-(2-(aminomethyl)-3-fluoropyridin-4-yl)-1-methyl-1H-indazol-3-yl)methoxy)-4-methoxyphenyl)acetic acid], the IC50 was under 1 µM.

In the case of `NCc1cccc(-c2ccc3sc(C(=O)O)c(COc4ccccc4CC(=O)O)c3c2)c1` [Compound 56d, 5-(3-(aminomethyl)phenyl)-3-((2-(carboxymethyl)phenoxy)methyl)benzo[b]thiophene-2-carboxylic acid], the IC50 was under 1 µM. With `CCCc1oc2ccc(-c3cccc(CN)c3)cc2c1COc1ccccc1CC(=O)O` [Compound 286c, 2-(2-((5-(3-(aminomethyl)phenyl)-2-propylbenzofuran-3-yl)methoxy)phenyl)acetic acid], the IC50 was under 1 µM. `NCc1cccc(-c2ccc3occ(COc4c(CC(=O)O)cccc4C(=O)O)c3c2)c1` [Compound 301d, 2-((5-(3-(aminomethyl)phenyl)benzofuran-3-yl)methoxy)-3-(carboxymethyl)benzoic acid]: the IC50 is under 1 µM. For `NCc1cccc(-c2ccc3occ(COc4cc(C(F)(F)F)ccc4CC(=O)O)c3c2)c1` [Compound 118d, 2-(2-((5-(3-(aminomethyl)phenyl)benzofuran-3-yl)methoxy)-4-(trifluoromethyl)phenyl)acetic acid], the IC50 is under 1 µM. `COc1ccc(CC(=O)O)c(OCc2c(C)oc3c(C4CC4)cc(-c4cccc(CN)c4)cc23)c1` [Compound 273j, 2-(2-((5-(3-(aminomethyl)phenyl)-7-cyclopropyl-2-methylbenzofuran-3-yl)methoxy)-4-methoxyphenyl)acetic acid]: the IC50 is under 1 µM.

For `COc1ccc(CC(=O)O)c(OCc2c(C(F)F)oc3c(C4CC4)cc(-c4cccc(CN)c4)cc23)c1` [Compound 234d, 2-(2-((5-(3-(aminomethyl)phenyl)-7-cyclopropyl-2-(difluoromethyl)benzofuran-3-yl)methoxy)-4-methoxyphenyl)acetic acid], the IC50 is under 1 µM. `NCc1cccc(-c2cccc3cc(C(=O)Nc4ccccc4CC(=O)O)oc23)c1` [Compound 21b, 2-(2-(7-(3-(aminomethyl)phenyl)benzofuran-2-carboxamido)phenyl)acetic acid]: the IC50 fell in the range of 1 to 10 µM. Take `NCc1cccc(-c2cc3cccc(COc4ccccc4CC(=O)O)c3o2)c1` [Compound 98g, 2-(2-((2-(3-(aminomethyl)phenyl)benzofuran-7-yl)methoxy)phenyl)acetic acid]: the IC50 is under 1 µM.

Regarding `COc1ccc(CC(=O)O)c(OCc2c3cc(-c4cccc(CN)c4)ccc3nn2C(C)C)c1` [Compound 255c, 2-(2-((5-(3-(aminomethyl)phenyl)-2-isopropyl-2H-indazol-3-yl)methoxy)-4-methoxyphenyl)acetic acid], the IC50 was under 1 µM.

As for `NCc1cccc(-c2cccc3cc(COc4cccc(CC(=O)O)c4)oc23)c1` [Compound 34c, 2-(3-((7-(3-(aminomethyl)phenyl)benzofuran-2-yl)methoxy)phenyl)acetic acid], the IC50 was over 10 µM.

`NCc1cccc(-c2cccc3ccc(COc4ccccc4CC(=O)O)cc23)c1` [Compound 99d, 2-(2-((8-(3-(aminomethyl)phenyl)naphthalen-2-yl)methoxy)phenyl)acetic acid]: the IC50 was over 10 µM. Regarding `NCc1cccc(-c2cc(OCc3nccs3)c3occ(COc4ccccc4CC(=O)O)c3c2)c1` [Compound 196f, 2-(2-((5-(3-(aminomethyl)phenyl)-7-(thiazol-2-ylmethoxy)benzofuran-3-yl)methoxy)phenyl)acetic acid], the IC50 is under 1 µM. Consider `CC(C)(C)OC(=O)N(Cc1cc(-c2cccc(CN)c2)cc2c(COc3ccccc3CC(=O)O)coc12)CC(F)(F)F` [Compound 177g, 2-(2-((5-(3-(aminomethyl)phenyl)-7-(((tert-butoxycarbonyl)(2,2,2-trifluoroethyl)amino)methyl)benzofuran-3-yl)methoxy)phenyl)acetic acid], for which the IC50 was under 1 µM. Take `CC(C)n1nc(C(Oc2ccccc2CC(=O)O)c2ccccc2)c2cc(-c3cccc(CN)c3)ccc21` (stereo not drawn) [Compound 228e, 2-(2-((5-(3-(aminomethyl)phenyl)-1-isopropyl-1H-indazol-3-yl)(phenyl)methoxy)phenyl)acetic acid]: the IC50 was over 10 µM.

Turning to `Cc1cccc(CC(=O)O)c1OCc1coc2ccc(-c3cccc(CN)c3)cc12` [Compound 107d, 2-(2-((5-(3-(aminomethyl)phenyl)benzofuran-3-yl)methoxy)-3-methylphenyl)acetic acid], the IC50 was under 1 µM.

As for `C[C@@H](N)c1cccc(-c2cc(CC3CCOCC3)c3occ(COc4ccccc4CC(=O)O)c3c2)c1F` [Compound 164e, (R)-2-(2-((5-(3-(1-aminoethyl)-2-fluorophenyl)-7-((tetrahydro-2H-pyran-4-yl)methyl)benzofuran-3-yl)methoxy)phenyl)acetic acid], the IC50 was under 1 µM. As to `COc1ccc(CC(=O)O)c(OCc2c(C)oc3ccc(-c4cccc(CN)c4F)cc23)c1` [Compound 201b, 2-(2-((5-(3-(aminomethyl)-2-fluorophenyl)-2-methylbenzofuran-3-yl)methoxy)-4-methoxyphenyl)acetic acid], the IC50 was under 1 µM. Regarding `NCc1cccc(-c2cc(C(O)C(F)(F)F)c3occ(COc4ccccc4CC(=O)O)c3c2)c1` (stereo not drawn) [Compound 257h, 2-(2-((5-(3-(aminomethyl)phenyl)-7-(2,2,2-trifluoro-1-hydroxyethyl)benzofuran-3-yl)methoxy)phenyl)acetic acid], the IC50 was under 1 µM. In the case of `COc1cc(-c2cccc(CN)c2)cc2c(COc3cc(C(F)(F)F)ccc3CC(=O)O)coc12` [Compound 269c, 2-(2-((5-(3-(aminomethyl)phenyl)-7-methoxybenzofuran-3-yl)methoxy)-4-(trifluoromethyl)phenyl)acetic acid], the IC50 is under 1 µM. Under `CC(C)Cn1cc(-c2cc(-c3cccc(CN)c3)cc3c(COc4ccccc4CC(=O)O)coc23)cn1` [Compound 129c, 2-(2-((5-(3-(aminomethyl)phenyl)-7-(1-isobutyl-1H-pyrazol-4-yl)benzofuran-3-yl)methoxy)phenyl)acetic acid] stands under 1 µM; under `COc1c(CN)cccc1-c1cc(OC)c2occ(COc3ccccc3CC(=O)O)c2c1` [Compound 324d, 2-(2-((5-(3-(aminomethyl)-2-methoxyphenyl)-7-methoxybenzofuran-3-yl)methoxy)phenyl)acetic acid], under 1 µM.
